The source of these data is US5032597A, “Method of using phenylquinolinecarboxylic acids and derivatives for lymthoid leukemia treatment in a mammal” (priority 1987, dated 1991).

One assay relates to L1210 leukemia. Put plainly: Lymphoid Leukemia L1210, survival of tumored mice. The format is in vivo, CD2F1 mice. As to conditions: for response vs control in vivo at 300 mg/kg: 300 mg/kg i.p.; for response vs control in vivo at 25 mg/kg: 25 mg/kg i.p. Summed up: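 Male CD2 F1 mice, six per group, received 10^5 L1210 cells i.p. on day 0. Compounds in hydroxypropylcellulose, saline/Tween 80 or saline were given i.p. at various doses once daily on days 1-9, with vehicle controls.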

For assay [1], the system named is human colon carcinoma cells HCT-15. Put plainly: Human colon tumor test in vitro, HCT-15 cell growth inhibition. The format is cell-based. To be noted: HCT-15 cells, compound day 1 to day 4; for in vitro HCT-15 ID50 (50 percent inhibition of number of doublings): 4320 min; for IC50: Homo sapiens, HCT-15, 72 h, read-out: in vitro HCT-15 ID50 (50 percent inhibition of number of doublings). In short, it runs like this:
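HCT-15 human colon adenocarcinoma cells in RPMI 1640 with 10% heat-inactivated FCS, compound added on day 1 and cells counted by hemocytometer on day 4. ID50 is the concentration (μg/ml) halving the number of doublings, from log-log dose-response plots.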

Where [2] appears, read: Mus musculus, L1210, ip, 720 h, read-out: L1210 Leukemia % T/C (median survival time).

Values after ≈ are worked out from the molar mass of the structure shown.

Regarding `CCc1c(-c2ccc(C3CCCCC3)cc2)nc2ccc(F)cc2c1C(=O)O` [Example 10], the response vs control in vivo at 200 mg/kg with L1210 leukemia (Mus musculus, L1210, ip, 720 h, 200 mg/kg i.p., read-out: L1210 Leukemia % T/C (median survival time)) is 163%. For the same compound, in assay [1], the “in vitro HCT-15 ID50 (50 percent inhibition of number of doublings)” value is 0.03 µg/mL.

Turning to `Cc1cc2c(C(=O)O)c(C)c(-c3ccc(Oc4ccccc4)cc3)nc2cc1Cl` [Example 59], in the assay with L1210 leukemia (setting [2]), the response vs control in vivo at 300 mg/kg turned out to be 152%. In addition, the IC50 in assay [1] is greater than 5 µg/mL.

As to `CCCCCCc1ccc(-c2nc3ccc(F)cc3c(C(=O)O)c2C)cc1` [Example 8], the response vs control in vivo at 400 mg/kg with L1210 leukemia (Mus musculus, L1210, ip, 720 h, 400 mg/kg i.p., read-out: L1210 Leukemia % T/C (median survival time)) came out at 147%. Also, the IC50 in assay [1] was determined as 0.4 µg/mL (≈ 1.09 µM).

Take `Cc1c(-c2ccc(Cc3ccccc3)cc2)nc2ccc(Cl)cc2c1C(=O)O` [Example 112]: in the assay on L1210 leukemia (setting [2]), the response vs control in vivo at 25 mg/kg is 128%. Besides, in assay [1], the IC50 is less than 0.5 µg/mL.

`Cc1cc2c(C(=O)O)c(C)c(-c3ccc(-c4ccccc4)cc3)nc2cc1Cl` [Example 58]: in the assay with L1210 leukemia (Mus musculus, L1210, ip, 720 h, 150 mg/kg i.p., read-out: L1210 Leukemia % T/C (median survival time)), the response vs control in vivo at 150 mg/kg turned out to be 141%. In assay [1], the “in vitro HCT-15 ID50 (50 percent inhibition of number of doublings)” value is greater than 0.50 µg/mL.

Turning to `Cc1c(-c2cc(-c3ccccc3)cs2)nc2ccc(F)cc2c1C(=O)O` [Example 44], the response vs control in vivo at 100 mg/kg in the assay with L1210 leukemia (Mus musculus, L1210, ip, 720 h, 100 mg/kg i.p., read-out: L1210 Leukemia % T/C (median survival time)) was 136%. Further, in assay [1], the IC50 is less than 0.1 µg/mL.

On to `Cc1c(-c2ccc(-c3ccccc3)cc2)nc2ccc(F)c(Cl)c2c1C(=O)O` [Example 81, 2-(4-Biphenyl)-5-chloro-6-fluoro-3-methyl-4-quinolinecarboxylic acid], for which the response vs control in vivo at 25 mg/kg in the assay on L1210 leukemia (setting [2]) was 191%. The IC50 in assay [1] is less than 0.5 µg/mL.

Turning to `Cc1c(-c2ccc(-c3ccc(F)cc3)cc2)nc2ccc(F)cc2c1C(=O)O` [Example 177], in the assay with L1210 leukemia (37.5 mg/kg i.p.), the “L1210 Leukemia % T/C (median survival time)” value was found to be 172%. Also, in assay [1], the “in vitro HCT-15 ID50 (50 percent inhibition of number of doublings)” value is less than 0.50 µg/mL.

As to `Cc1c(-c2ccc(Oc3ccccc3)cc2)nc2ccc(Br)cc2c1C(=O)O` [Example 53], the response vs control in vivo at 75 mg/kg in the assay with L1210 leukemia (Mus musculus, L1210, ip, 720 h, 75 mg/kg i.p., read-out: L1210 Leukemia % T/C (median survival time)) was 136%. Moreover, the IC50 in assay [1] is less than 0.5 µg/mL.

Take `Cc1c(-c2ccc(-c3ccccc3)cc2)nc2c(Br)cc(Br)cc2c1C(=O)O` [Example 60]: the response vs control in vivo at 300 mg/kg with L1210 leukemia (setting [2]) came out at 192%. Moreover, the IC50 in assay [1] is less than 0.5 µg/mL.
